Reference: patent US12522610B2 (priority 2018, dated 2026)
Values after ≈ are worked out from the molar mass of the structure shown. Read-outs that look alike come from different tables or passages of the source.

What was measured:
physchem = details: 55 °C, aqueous with cosolvent or surfactant or cyclodextrin, thermodynamic from solid
[1] = salt forms; dissolution medium, 55° C. water bath, 60 rpm; Table 4

| Compound | solubility (physchem) | solubility [1] |
| --- | --- | --- |
| COC12CC[C@@]3(C[C@@H]1[C@](C)(O)C(C)(C)C)C1Cc4ccc(O)c5c4[C@@]3(CCN1CC1CC1)[C@H]2O5 [Buprenorphine free base] | 1180 µg/mL (≈ 2510 µM) |  |
| Buprenorphine acetate-hydrochloride salt |  | 1716 µg/mL |
